Source: publication PMC3132048, “Treatment of experimental adjuvant arthritis with a novel folate receptor-targeted folic acid-aminopterin conjugate” (Arthritis Research & Therapy, 2011)
“And” between values parts separate entries of the source, which are not always exact repeats. Equal entries are not always repeated.

Tests used:
[1] = target: T1, FRα (FRα-expressing KB cells) (Homo sapiens, UniProt P15328); test: Relative affinity assay: displacement of [3H]FA from KB cells; type: binding; details: 37°C, competitor of [3H]FA, inverse molar ratio to displace 50%
T1 construct: both KB cells and CHO-FRβ cells were used as the sources of FR; endogenous in cells; host or cells: KB cells
Procedure: (§1) The relative affinities of EC0746, AMT, and MTX were determined according to a previously established method except that both KB cells and CHO-FRβ cells were used as the sources of FR [33]. KB cells are a human cancer cell line known for elevated expression of FRα. CHO-FRβ cells were obtained from Manohar Ratnam, Department of Biochemistry and Cancer Biology, The University of Toledo (Toledo, OH, USA). This cell line was originally generated by stable integration and amplification of a human FRβ cDNA expression construct in CHO-K1 cells.

[2] = target: T2, human FRβ (CHO-FRβ cells) (Homo sapiens, UniProt P14207); test: Relative affinity assay: displacement of [3H]FA from CHO-FRβ cells; type: binding; details: 37°C, competitor of [3H]FA, inverse molar ratio to displace 50%
T2 construct: host or cells: CHO-K1 cells
Procedure: as §1

[3] = target: T3, dihydrofolate reductase (DHFR) (Mus musculus, UniProt P00375); test: Dihydrofolate reductase inhibition assay in RAW264.7 whole cell lysates; type: cell-based, murine; details: 100 nM plus 100-fold excess FA (10 μM), 2-hour pulse, 22-hour chase
T3 construct: endogenous in cells; host or cells: RAW264.7 cells (FR-positive subclone of ATCC TIB71)
T3 sequence (P00375 1-187): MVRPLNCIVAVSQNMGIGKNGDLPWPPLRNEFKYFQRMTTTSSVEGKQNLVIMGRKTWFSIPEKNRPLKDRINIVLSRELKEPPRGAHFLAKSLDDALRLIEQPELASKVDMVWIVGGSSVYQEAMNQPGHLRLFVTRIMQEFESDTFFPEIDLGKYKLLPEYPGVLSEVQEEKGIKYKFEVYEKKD
Procedure: RAW264.7 cells growing in FFRPMI medium in 10 cm cell culture dishes (BD Falcon, Lincoln Park, NJ, USA) were treated with EC0746 (100 nM), EC0746 (100 nM) plus 100-fold molar excess of FA (10 μM), or FA alone (10 μM). After a 2-hour exposure, the drug-containing media were replaced and the cells were allowed to incubate further for 22 hours in fresh FFRPMI medium (referred in the text as a 22-hour chase). Meanwhile, AMT and MTX were kept at 100 nM for the entire 24-hour incubation period. All cells were subsequently lysed in the radioimmunoprecipitation assay lysis buffer, and DHFR activities in the whole cell lysates were determined using a commercial DHFR assay kit (Sigma-Aldrich). This spectrophotometric assay monitors the enzymatic conversion of dihydrofolic acid to tetrahydrofolic acid by DHFR and the disappearance of the co-factor nicotinamide adenine dinucleotide phosphate at 340 nm. The results were normalized to the values of the untreated control cells.

[4] = tested on: TNFα production in RAW264.7 cells; test: LPS-stimulated TNFα production (ELISA); type: cell-based, murine
Procedure: RAW264.7 cells in 96-well plates (3.5 × 10^4 cells/well) were treated with 10-fold serial dilutions of EC0746 (≤1 μM) in FFRPMI medium without and with 100-fold molar excess of FA. After a 2-hour exposure, the drug-containing media were replaced and the cells were allowed to incubate further for 70 hours (referred in the text as a 70-hour chase). In comparison, the cells were also treated continuously with AMT for 72 hours. Four hours prior to the end of incubation, LPS was added to the treated cells at a final concentration of 100 ng/ml. Then 100 μl culture supernatants were collected for TNFα analysis by ELISA. The cell viability was assessed by adding XTT to the remaining media for an additional 4 hours following the manufacturer's instructions. To evaluation of a cytostatic effect, RAW264.7 cells seeded at 1 × 10^6 cells/well in six-well plates were subjected to 2-hour exposure and a 70-hour chase with 0, 0.1, 10, and 1000 nM EC0746 without and with excess FA. At the end of the incubation (no LPS added), the surviving cells (that is, still viable cells) were recovered and redistributed in equal numbers in fresh medium for an additional 72 hours. The cell proliferation was again assessed by the XTT assay. All results were expressed as the percentage absorbance (minus background) relative to the untreated control cells.

rat TG-macs = test: Viability of thioglycollate-elicited peritoneal macrophages; type: cell-based; details: 72-hour incubation; no effect at concentrations as high as stated
Procedure: Female Lewis rats (175 to 200 g) were purchased from Harlan Sprague Dawley (Indianapolis, IN, USA) and were allowed to acclimate for 1 week. To obtain peritoneal macrophages, rats were dosed intraperitoneally with an aged thioglycollate (TG) medium (20 ml/kg) and euthanized 3 days later. The peritoneal cavity of the animals was lavaged with 60 ml ice-cold phosphate-buffered saline to collect peritoneal exudate. The TG-elicited macrophages in the peritoneal fluids were obtained after a red cell lysing step and a 2-hour adherence in folate-free RPMI 1640 medium (Mediatech, Manassas, VA, USA) containing 1% heat-activated fetal calf serum and antibiotics. The purity of the resulting macrophage population (herein referred to as rat TG-macs) was determined to be ~90% pure based on CD11b/c expression (data not shown). […] Unless otherwise specified, all cells were maintained in the folate-free RPMI 1640 medium containing 10% heat-activated fetal calf serum and antibiotics (FFRPMI) under a 5% CO2 atmosphere.
Unlike RAW264.7 cells, rat TG-macs display little proliferative activity ex vivo and therefore were used in our studies to represent inflammatory macrophages in a low proliferative state. […] LPS (5 μg/ml) and IFNγ (100 ng/ml) were then added to the treated cells 24 hours prior to the end of incubation to stimulate the release of cytokines/chemokines, which were then detected with a rat cytokine antibody array.

[5] = tested on: cytokine/chemokine release by rat TG-macs; test: Rat cytokine array analysis after LPS/IFNγ co-stimulation; type: cell-based; details: 100 nM, 2-hour pulse, 70-hour chase, LPS 5 μg/ml plus IFNγ 100 ng/ml last 24 hours
Procedure: This analysis was performed on rat TG-macs to compare EC0746 against AMT and MTX for their abilities to inhibit cytokine production after LPS/IFNγ co-stimulation. Using our standard condition of 2-hour pulse plus a 70-hour chase period, rat TG-macs (harvested the day before) were given vehicle (media only), EC0746 (100 nM), EC0746 (100 nM) plus 100-fold molar excess of FA (10 μM), or FA alone (10 μM). For unconjugated base drugs, 100 nM AMT and MTX were present continuously for the entire 72-hour incubation period. Twenty-four hours prior to the end of incubation, LPS (5 μg/ml) and IFNγ (100 ng/ml) were added to the cells to stimulate cytokine production. The presence of cytokines/chemokines in the culture media was detected using a rat cytokine antibody array kit (R&D Systems) capable of detecting 29 analytes in duplicate spots. The total pixel intensity for each spot in the array was quantitated using the NIH ImageJ software, subtracted from the background, and averaged for each analyte.

[6] = Preliminary short-term toxicity / MTD in folate-deficient healthy rats; type: in vivo, rat; details: folate-deficient rats
Procedure: The short-term toxicity and MTD of EC0746 and AMT were evaluated in healthy rats following the standard BIW subcutaneous dosing regimen used for efficacy studies. Further, these animals were put on a folate-deficient diet for ~20 days before treatment to match the folate deficiency status of AIA rats used for therapy. The folate-deficient but nonarthritic animals were thus given increasing doses of EC0746 and AMT for two consecutive weeks on a BIW basis. […] Standard hematologic and blood chemistry parameters were examined as needed along with histopathology.

T2 sequence (P14207 17-255): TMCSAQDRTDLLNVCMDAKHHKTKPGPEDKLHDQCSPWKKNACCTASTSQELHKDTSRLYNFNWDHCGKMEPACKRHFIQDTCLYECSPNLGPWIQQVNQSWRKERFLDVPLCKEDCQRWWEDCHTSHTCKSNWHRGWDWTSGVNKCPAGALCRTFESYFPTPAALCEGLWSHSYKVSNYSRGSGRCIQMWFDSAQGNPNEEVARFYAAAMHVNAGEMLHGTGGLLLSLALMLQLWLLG
T1 sequence (P15328 25-257): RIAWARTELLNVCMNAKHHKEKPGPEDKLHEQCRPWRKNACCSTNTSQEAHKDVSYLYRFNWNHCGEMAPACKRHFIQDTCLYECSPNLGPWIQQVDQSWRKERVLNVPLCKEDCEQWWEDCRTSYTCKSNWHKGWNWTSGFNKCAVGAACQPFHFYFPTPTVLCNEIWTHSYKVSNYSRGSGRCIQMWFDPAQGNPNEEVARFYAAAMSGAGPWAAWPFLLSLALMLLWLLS

For Nc1nc(N)c2nc(CNc3ccc(C(=O)N[C@@H](CCC(=O)NNC(=O)OCCSSC[C@H](NC(=O)[C@H](CCC(=O)NC[C@H](O)[C@@H](O)[C@H](O)[C@H](O)CO)NC(=O)[C@H](CCC(=O)O)NC(=O)[C@H](CCC(=O)NC[C@H](O)[C@@H](O)[C@H](O)[C@H](O)CO)NC(=O)[C@H](CCC(=O)O)NC(=O)[C@H](CCC(=O)NC[C@H](O)[C@@H](O)[C@H](O)[C@H](O)CO)NC(=O)CC[C@H](NC(=O)c4ccc(NCc5cnc6nc(N)[nH]c(=O)c6n5)cc4)C(=O)O)C(=O)O)C(=O)O)cc3)cnc2n1 [EC0746], the “Relative affinity value (FA = 1)” value [1] was 0.50, the “Relative affinity value (FA = 1)” value [2] was 0.27 and the “DHFR inhibitory activity with excess FA” value [3] was “blocked by excess FA”. The IC50 ([4]; 2-hour pulse, 70-hour chase, LPS 100 ng/ml last 4 hours, read-out: Relative 50% inhibitory concentration, TNFα after LPS stimulation) was roughly 1.6 nM, the “TNFα effect competitive by excess FA” value ([4]; 100-fold molar excess FA) was 100% and the “Concentration affecting TG-macs viability” value (rat TG-macs) was greater than 10 µM. The “Number of released cytokines/chemokines (of ~19) showing FR-specific inhibition” value [5] was 11, the “Gastrointestinal-associated side effects at respective MTD doses” value ([6]; compared with AMT) was “less of the gastrointestinal-associated side effects than AMT” and the “Difference in toxicity versus AMT (less toxic)” value ([6]; s.c., ratio of MTDs) was ~ 40 fold and 40 fold.
